Calls of active or inactive are those of the source.
Assays:
[1] = target: Glyceraldehyde-3-phosphate dehydrogenase (Homo sapiens, UniProt P04406)
[2] = HEK-293T cell viability reduction – luminescence, B-cell screen hits, cytotoxicity control for BCR NF-kB inhibitor project, dose response (AID 489021); assay type: functional, cell-based;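 further: HEK-293T cells carrying an NF-kB luciferase reporter; cells exposed to compound for about 14 hours before viability readout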
[3] = blockers of HIV-1 envelope-mediated cell-cell fusion – cherry-pick, dose response (AID 652057); assay type: functional, cell-based
[4] = target: T1, Calpain-2 catalytic subunit (Sus scrofa, UniProt P43367); assay: m-calpain protease blockers, concentration series – biochemical, fluorogenic peptide substrate, dose response (AID 1420); assay type: functional
T1 sequence (P43367 whole entry): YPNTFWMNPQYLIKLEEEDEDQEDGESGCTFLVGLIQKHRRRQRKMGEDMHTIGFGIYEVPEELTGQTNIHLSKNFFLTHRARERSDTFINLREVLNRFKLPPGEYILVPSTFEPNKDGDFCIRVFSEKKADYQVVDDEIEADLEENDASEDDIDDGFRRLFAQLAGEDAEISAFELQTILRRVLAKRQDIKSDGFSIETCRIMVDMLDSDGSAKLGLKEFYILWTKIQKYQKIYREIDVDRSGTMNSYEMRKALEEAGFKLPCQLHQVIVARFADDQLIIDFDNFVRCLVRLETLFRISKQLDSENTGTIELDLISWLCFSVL

[5] = blockers of HIV-1 ZM109 envelope-driven cell-cell fusion – HeLa effector, CEM target cells, luciferase, cherry-pick, dose response (AID 652058); assay type: functional, cell-based;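 further: luciferase signal from HIV-1 Env mediated cell-cell fusion of effector and target cells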
[6] = HIV-1 AD8 envelope cell-cell fusion blockers – cherry-pick, dose response (AID 652062); assay type: functional, cell-based;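 further: luciferase signal from cell-cell fusion driven by HIV-1 clade B AD8 Env; potency is for inhibitors of fusion seen as a drop in luminescence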
[7] = off-target signal loss in HeLa-CEM21 co-culture – HeLa F-luc CTL cells, cherry-picked, counter-screen for HIV-1 Env fusion inhibitor project, dose response (AID 652040); assay type: functional, cell-based;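 further: potency for signal decrease marking cytotoxic or nonspecific inhibition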
BJ [8] = assay: BJ-TERT fibroblast viability loss – cell-based, RAS-independent, luminescence, dose response (AID 1933); assay type: functional; conditions: Homo sapiens
BJ [9] = assay: cells; assay type: functional, cell-based; conditions: Homo sapiens
[10] = target: T2, High affinity choline transporter 1 (Homo sapiens, UniProt Q9GZV3); assay: human choline transporter blockers, potency – cell-based, 5-point CRC, membrane potential dye, dose response (AID 504840); assay type: functional
T2 sequence (Q9GZV3 whole entry): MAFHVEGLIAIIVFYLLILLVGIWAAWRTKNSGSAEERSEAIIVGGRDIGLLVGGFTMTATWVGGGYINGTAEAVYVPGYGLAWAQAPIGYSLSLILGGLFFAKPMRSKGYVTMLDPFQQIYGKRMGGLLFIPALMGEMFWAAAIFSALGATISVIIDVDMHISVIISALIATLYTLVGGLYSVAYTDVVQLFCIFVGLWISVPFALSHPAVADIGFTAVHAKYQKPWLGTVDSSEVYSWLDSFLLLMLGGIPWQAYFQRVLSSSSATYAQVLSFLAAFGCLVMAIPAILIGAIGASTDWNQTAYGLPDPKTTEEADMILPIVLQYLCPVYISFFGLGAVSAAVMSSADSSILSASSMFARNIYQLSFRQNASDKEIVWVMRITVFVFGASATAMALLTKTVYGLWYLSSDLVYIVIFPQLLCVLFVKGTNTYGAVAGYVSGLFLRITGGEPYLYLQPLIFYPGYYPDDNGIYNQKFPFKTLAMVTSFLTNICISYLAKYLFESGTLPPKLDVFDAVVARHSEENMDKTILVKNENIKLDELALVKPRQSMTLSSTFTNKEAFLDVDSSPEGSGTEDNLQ

[11] = target: T3, Heat shock factor protein 1 (Mus musculus, UniProt P38532); assay: enhancement of HSF1-driven luciferase signal – cell-based, NIH3T3, luminescence, dose retest, confirmation (AID 435004); assay type: functional;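 further: stress induced by proteasome inhibitor MG132 added 30 min after compound; luciferase reporter driven by HSF1 response element in NIH3T3 cells; actives raise luminescence as potentiators of the MG132 stress response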
T3 sequence (P38532 whole entry): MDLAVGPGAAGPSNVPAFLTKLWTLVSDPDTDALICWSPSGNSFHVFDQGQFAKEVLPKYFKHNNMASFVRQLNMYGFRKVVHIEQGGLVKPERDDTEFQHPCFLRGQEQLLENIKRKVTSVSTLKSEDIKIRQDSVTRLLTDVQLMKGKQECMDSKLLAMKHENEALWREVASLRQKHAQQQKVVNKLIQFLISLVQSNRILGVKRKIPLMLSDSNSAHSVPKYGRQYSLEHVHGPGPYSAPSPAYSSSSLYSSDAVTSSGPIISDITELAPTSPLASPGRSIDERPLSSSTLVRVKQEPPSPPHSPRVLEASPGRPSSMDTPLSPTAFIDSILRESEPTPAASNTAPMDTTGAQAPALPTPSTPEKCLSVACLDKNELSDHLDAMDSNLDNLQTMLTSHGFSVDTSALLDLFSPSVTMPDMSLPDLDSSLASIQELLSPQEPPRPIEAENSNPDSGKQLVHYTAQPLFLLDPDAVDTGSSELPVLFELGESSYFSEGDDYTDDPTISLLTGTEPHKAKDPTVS

[12] = DRD fibroblast viability loss – cell-based, non-viral oncogenic, luminescence, dose response (AID 1934); assay type: functional; conditions: Homo sapiens
BJ [13] = assay: BJ-TERT-LT-ST fibroblast viability loss – cell-based, RAS-independent, luminescence, dose response (AID 1935); assay type: functional; conditions: Homo sapiens;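 further: BJ fibroblasts immortalized with TERT plus LT and ST oncogenes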
[14] = target: T4, Corticotropin-releasing factor receptor 2/Corticotropin-releasing factor-binding protein (Homo sapiens, UniProt P24387+Q13324); assay: activators of CRF receptor 2 with binding protein – uHTS hits, confirmation (AID 602473); assay type: functional; conditions: read-out: EC50_Mean
T4 sequence (Q13324 whole entry): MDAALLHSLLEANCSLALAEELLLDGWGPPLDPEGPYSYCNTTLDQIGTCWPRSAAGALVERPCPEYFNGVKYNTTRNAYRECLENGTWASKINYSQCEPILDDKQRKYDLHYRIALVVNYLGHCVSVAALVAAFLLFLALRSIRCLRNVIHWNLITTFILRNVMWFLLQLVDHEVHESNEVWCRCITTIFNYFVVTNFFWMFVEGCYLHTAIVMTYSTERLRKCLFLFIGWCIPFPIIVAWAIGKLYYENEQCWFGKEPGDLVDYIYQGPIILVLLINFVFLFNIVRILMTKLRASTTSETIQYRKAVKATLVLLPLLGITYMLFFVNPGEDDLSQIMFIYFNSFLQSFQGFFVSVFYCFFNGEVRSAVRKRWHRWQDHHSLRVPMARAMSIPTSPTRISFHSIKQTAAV
T4 sequence (P24387 whole entry): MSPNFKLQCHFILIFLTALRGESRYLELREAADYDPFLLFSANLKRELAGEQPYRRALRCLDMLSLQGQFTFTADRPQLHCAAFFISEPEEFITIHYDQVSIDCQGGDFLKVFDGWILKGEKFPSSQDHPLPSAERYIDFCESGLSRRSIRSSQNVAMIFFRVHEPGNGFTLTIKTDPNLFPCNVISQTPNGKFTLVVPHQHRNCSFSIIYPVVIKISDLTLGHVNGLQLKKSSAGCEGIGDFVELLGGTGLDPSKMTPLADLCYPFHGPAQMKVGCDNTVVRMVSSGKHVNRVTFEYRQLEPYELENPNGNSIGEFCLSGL

[15] = target: T5, Ubiquitin-conjugating enzyme E2 N (Homo sapiens, UniProt P61088); assay type: functional;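 further: Dose-response confirmation in a TR-FRET assay detecting UBC13-driven polyubiquitin chain formation, inhibition measured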
T5 sequence (P61088 whole entry): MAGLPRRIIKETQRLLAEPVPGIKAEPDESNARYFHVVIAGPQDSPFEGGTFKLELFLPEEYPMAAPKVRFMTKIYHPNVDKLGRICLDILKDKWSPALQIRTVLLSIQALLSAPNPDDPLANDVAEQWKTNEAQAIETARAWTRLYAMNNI

H9c2 = assay: cells; assay type: functional, cell-based; conditions: Rattus norvegicus, H9c2, Myocardium;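 further: confirmatory concentration-response retest of ultra-high-throughput screening hits for modulation of myocardial damage; cell death induced by hydrogen peroxide oxidative stress; compound pretreatment for 60 min then peroxide exposure for 2 h; potency is for protecting the cells against peroxide damage rather than for killing them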
P388/ADR = assay: cells; assay type: functional; conditions: Mus musculus
SN12K1 = assay: cells; assay type: functional; conditions: Homo sapiens
P388 = assay: cells; assay type: functional; conditions: Mus musculus
[16] = P. falciparum Dd2 growth inhibitors, dose response, SYBR Green, cherry-picked samples (AID 1159567); assay type: functional, cell-based
INS1 = assay: INS-1E survival protection against cytokine death – cell-based, luminescence, retest, dose response (AID 449756); assay type: functional; conditions: Rattus norvegicus;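 further: cell death triggered by IL-1 beta plus TNF-alpha plus IFN-gamma mixture; protective hits raise ATP signal compared with cytokine alone wells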

Chain of Glyceraldehyde-3-phosphate dehydrogenase (P04406 whole entry): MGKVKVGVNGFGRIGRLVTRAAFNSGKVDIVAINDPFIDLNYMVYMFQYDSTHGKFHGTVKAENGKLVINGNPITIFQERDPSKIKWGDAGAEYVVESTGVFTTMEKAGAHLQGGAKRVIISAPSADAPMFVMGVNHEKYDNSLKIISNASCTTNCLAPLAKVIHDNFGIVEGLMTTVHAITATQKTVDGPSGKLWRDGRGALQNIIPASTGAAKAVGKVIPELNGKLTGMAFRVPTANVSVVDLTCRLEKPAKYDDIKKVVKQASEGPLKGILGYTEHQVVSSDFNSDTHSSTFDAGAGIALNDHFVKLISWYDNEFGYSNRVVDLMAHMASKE

With Cc1cccc(N2C(=O)C(Cl)=C(N3CCN(c4ncccn4)CC3)C2=O)c1 the IC50 [1] was > 50 µM (inconclusive).

In the case of O=C(CCCN1C(=O)/C(=C/c2ccccc2Cl)SC1=S)NNC(=O)c1ccncc1, the IC50 [2] is reported as > 80 µM (inactive).

In the case of Nc1c(Cl)cc2c(c1Oc1ccccc1)C(=O)c1ccccc1C2=O, the AC50 [3] is reported as 11.2 µM (active), the IC50 [4] is reported as 2.46 µM (not active) and the AC50 [5] is reported as 14.3 µM (active). For the same molecule, the AC50 [6] was 16.4 µM (active) and the AC50 [7] was 11.2 µM (active).

For Cc1nn(C(C)(C)C)c(OC(=O)c2ccc(Br)o2)c1Sc1ccccc1, the IC50 [2] was > 80 µM (inactive).

With CC(C)Nc1nc(Cl)nc(N(C#N)CN2C(=O)c3ccccc3C2=O)n1 the EC50 (BJ [8]) was 10.1 µM (active), the EC50 (BJ [9]) was 16.2 µM (active) and the IC50 [10] was 1.58 µM (active). The EC50 [11] was 27.9 µM (active), the EC50 [12] was 17.9 µM (active) and the EC50 (BJ [13]) was > 150 µM (inconclusive).

In the case of CS(=O)(=O)N(Cc1ccc(Cl)cc1)c1ccc(C(=O)NCCSc2ccccn2)cc1, the AC50 [3] is reported as 5.5 µM (active), the AC50 [5] is reported as 52.2 µM (active) and the EC50 [14] is reported as > 53 µM (inactive). The AC50 [6] was 6.23 µM (active) and the AC50 [7] was 18.6 µM (active).

With C[C@@H]1CN(C2=C(Cl)C(=O)N(c3cccc(C(F)(F)F)c3)C2=O)CCN1 the IC50 [1] was > 50 µM (inconclusive).

With O=C(NCC1CCN(Cc2ccc(F)cc2)CC1)C1CCCN(c2ncnc3c2nc2n3CCCCC2)C1 (stereo unspecified) the IC50 [15] was > 20 µM (inactive).

For COc1ccc(NC(=O)c2cc(-c3ccccn3)nc3ccccc23)cc1S(=O)(=O)N(C)C, the IC50 [2] was > 80 µM (inactive) and the IC50 (H9c2) was > 79 µM (inactive).

With C[C@@]12C(=O)N(Cc3ccc(F)cc3)CC(=O)N1[C@H]1c3cc(Cl)ccc3OC[C@@H]1[C@@H]2c1ccccc1 the AC50 [3] was 5.93 µM (active), the AC50 [5] was 8.91 µM (active) and the AC50 [7] was 7.95 µM (active).

With COCCn1nnnc1CN(CCc1ccccc1)Cc1cc2cc(OC)ccc2nc1O the AC50 [3] was 5.69 µM (active), the AC50 [5] was 5.58 µM (active) and the AC50 [6] was 1.48 µM (active). The AC50 [7] was 26.9 µM (active) and the IC50 (H9c2) was 16.1 µM (active).

For CN(C)CCNC(=O)c1cccc2nc(-c3ccccc3)oc12, the GI50 (P388/ADR) was 8.63 µM (inactive), the GI50 (SN12K1) was 22.8 µM (inactive) and the GI50 (P388) was 4.34 µM (inactive).

In the case of COc1ccc(/C=N\NC(=O)c2c(C)nc3ccc(Br)cn23)cc1, the EC50 (BJ [8]) is reported as 3.13 µM (active), the EC50 (BJ [9]) is reported as 2.71 µM (active) and the IC50 (H9c2) is reported as 12.1 µM (active). The EC50 [12] was 2.9 µM (inconclusive) and the EC50 (BJ [13]) was 2.67 µM (inconclusive).

For Cc1ccc(C(=O)Nc2ncn(C3CC(O)C(CO)O3)c(=O)n2)cc1 (stereo unspecified), the GI50 (P388/ADR) was 3.69 µM (inactive), the GI50 (SN12K1) was > 100 µM (inactive) and the GI50 (P388) was 5.26 µM (inactive).

With CC1(C)CC2(CC(C)(C)N1O)NC(=O)OC2=O the GI50 (P388/ADR) was 4.47 µM (inactive), the GI50 (SN12K1) was > 100 µM (inactive) and the GI50 (P388) was 60.7 µM (inactive).

For CC[C@@]1(O)C[C@H](OC2CC(N(C)C)C(OC3CC(O)C(OC4CC(O)C(O)C(C)O4)C(C)O3)C(C)O2)c2c(cc3c(c2O)C(=O)c2c(O)ccc(O)c2C3=O)[C@H]1C(=O)OC (stereo partly specified), the GI50 (P388/ADR) was 0.713 µM (active), the GI50 (SN12K1) was 0.00695 µM (active) and the GI50 (P388) was 0.00693 µM (active).

With CC(=O)OC1CC2(O)C(CCC3(C)C(c4ccc(=O)oc4)CCC32O)C2(C)CCC(O)C=C12 (stereo unspecified) the GI50 (P388/ADR) was 7.26 µM (inactive), the GI50 (SN12K1) was 0.0196 µM (active) and the GI50 (P388) was 4.37 µM (inactive).

With COc1ccccc1/C=N/N1C(=O)C(CC(=O)Nc2ccc([N+](=O)[O-])cc2OC)S/C1=N\c1cccc(C)c1C (stereo unspecified) the EC50 (BJ [8]) was 10.6 µM (active), the EC50 (BJ [9]) was 22.9 µM (active) and the EC50 [12] was 4.24 µM (active). The EC50 (BJ [13]) was 14.9 µM (inconclusive).

For CC(C)(O)C#Cc1cccc(-c2nc(C(=O)N[C@@H]3CCN(Cc4ccccc4)C3)cc3c2[C@H](CCO)N([S+]([O-])C(C)(C)C)C3)c1 (stereo partly specified), the AC50 [16] was 5.86 µM (active).

With N=c1c2c(n(Cc3ccc(Cl)cc3Cl)c3c1CCC3)CCCC2 the IC50 [2] was > 80 µM (inactive) and the AC50 (INS1) was 3.58 µM (active).

With CN(CO)c1nc(N(C)CO)nc(N(C)CO)n1 [TRIMELAMOL] the GI50 (P388/ADR) was 16.3 µM (inactive), the GI50 (SN12K1) was 4.98 µM (inactive) and the GI50 (P388) was 6.15 µM (inactive).
